Assay results from ChEMBL document CHEMBL5625209, “Rational design and optimization of acylthioureas as novel potent influenza virus non-nucleoside polymerase inhibitors” (Eur J Med Chem, 2023).
Active and inactive are the calls of the source. No cut-off for these calls is given here.

What was measured:
Influenza A virus [1] = test: Antiviral activity against Influenza A virus H1N1 (A/Puerto Rico/8/34) infected in MDCK cells assessed as reduction in viral proliferation at 20 nM pre-infected with virus for 1 hr followed by compound addition and measured after 48 hrs by crystal violet staining based plaque formation assay; format: functional, organism-based
[2] = Cytotoxicity against MDCK cells by CCK-8 assay; format: toxicity, cell-based, Canis lupus familiaris; conditions: dog
[3] = Half life in Sprague-Dawley rat at 10 mg/kg, po measured up to 24 hrs by LC-MS analysis; format: ADME, organism-based; conditions: in vivo
[4] = AUC(0 to t) in Sprague-Dawley rat at 10 mg/kg, po measured up to 24 hrs by LC-MS analysis; format: ADME, organism-based; conditions: in vivo
[5] = Metabolic stability in dog liver microsomes assessed as hepatic extraction ratio preincubated for 5 mins followed by NADPH addition and measured upto 45 mins by LC-MS analysis; format: ADME, Canis lupus familiaris, Microsome; conditions: time < 50 min
Influenza A virus [6] = test: Antiviral activity against Influenza A virus H1N1 (A/Puerto Rico/8/34) infected in MDCK cells assessed as reduction in nucleocapsid protein level by Western blot analysis; format: functional, organism-based; conditions: dose 2-125 nM
[7] = Metabolic stability in dog liver microsomes assessed as half life preincubated for 5 mins followed by NADPH addition and measured upto 45 mins by LC-MS analysis; format: ADME, Canis lupus familiaris, Microsome; conditions: time < 50 min
[8] = Metabolic stability in human plasma assessed as half life measured upto 120 mins by LC-MS/MS analysis; format: ADME, cell-free
[9] = Metabolic stability in dog liver microsomes assessed as hepatic clearance preincubated for 5 mins followed by NADPH addition and measured upto 45 mins by LC-MS analysis; format: ADME, Canis lupus familiaris, Microsome; conditions: time < 50 min
[10] = Toxicity in BALB/c mouse assessed as body weight loss at 1 g/kg, IG administered 3 times per day and measured on day 4 to 9; conditions: in vivo, po, 1000 mg/kg, time 4-9 day
[11] = Toxicity in BALB/c mouse assessed as anorexia at 1 g/kg, IG administered 3 times per day and measured for 14 days; conditions: in vivo, po, 1000 mg/kg, 336 h, time 14 day
[12] = Tmax in Sprague-Dawley rat at 3 mg/kg, iv measured up to 24 hrs by LC-MS analysis; format: ADME, organism-based; conditions: in vivo
[13] = AUC(0 to infinity) in Sprague-Dawley rat at 10 mg/kg, po measured up to 24 hrs by LC-MS analysis; format: ADME, organism-based; conditions: in vivo
[14] = Metabolic stability in human plasma assessed as remaining compound measured upto 120 mins by LC-MS/MS analysis; format: ADME, cell-free; conditions: read-out: Stability
[15] = Cmax in Sprague-Dawley rat at 3 mg/kg, iv measured up to 24 hrs by LC-MS analysis; format: ADME, organism-based; conditions: in vivo
[16] = Metabolic stability in mouse liver microsomes assessed as half life preincubated for 5 mins followed by NADPH addition and measured upto 45 mins by LC-MS analysis; format: ADME, Microsome; conditions: time < 50 min
Influenza A virus [17] = test: Antiviral activity against Influenza A virus H1N1 (A/Puerto Rico/8/34) infected in MDCK cells assessed as reduction in NP viral RNA level at 1 uM treated at 4 hrs post infection by qRT-PCR analysis; format: functional, organism-based
[18] = AUC(0 to infinity) in Sprague-Dawley rat at 3 mg/kg, iv measured up to 24 hrs by LC-MS analysis; format: ADME, organism-based; conditions: Sprague-Dawley, in vivo
[19] = Clearance in Sprague-Dawley rat at 3 mg/kg, iv measured up to 24 hrs by LC-MS analysis; format: ADME, organism-based; conditions: in vivo
Influenza A virus [20] = test: Antiviral activity against Influenza A virus H1N1 (A/Puerto Rico/8/34) infected in MDCK cells assessed as reduction in virus-induced cytopathic effect incubated for 48 hrs by CCK8 assay; format: functional, organism-based
Influenza B virus [21] = test: Antiviral activity against influenza B virus Victoria/2/87 infected in MDCK cells; format: functional, organism-based; conditions: Victoria/2/87, MDCK
Influenza A virus [22] = test: Inhibition of Influenza A virus RdRp activity assessed as reduction in Fluc/Rluc ratio; conditions: dose 0.5-50 µM
[23] = Toxicity in BALB/c mouse assessed as animal death at 1 g/kg, IG administered 3 times per day and measured for 14 days; conditions: in vivo, po, 1000 mg/kg, 336 h, time 14 day
Influenza A virus [24] = test: Antiviral activity against Influenza A virus H1N1 (A/Puerto Rico/8/34) infected in MDCK cells assessed as reduction in NP protein level at 1 uM in presence of rUTP by Western blot analysis; format: functional, organism-based
[25] = Toxicity in BALB/c mouse assessed as ruffled fur at 1 g/kg, IG administered 3 times per day and measured for 14 days; conditions: in vivo, po, 1000 mg/kg, 336 h, time 14 day
[26] = Metabolic stability in human liver microsomes assessed as hepatic extraction ratio preincubated for 5 mins followed by NADPH addition and measured upto 45 mins by LC-MS analysis; format: ADME, Microsome; conditions: time < 50 min
[27] = Cmax in Sprague-Dawley rat at 10 mg/kg, po measured up to 24 hrs by LC-MS analysis; format: ADME, organism-based; conditions: in vivo
[28] = Tmax in Sprague-Dawley rat at 10 mg/kg, po measured up to 24 hrs by LC-MS analysis; format: ADME, organism-based; conditions: in vivo
Influenza A virus [29] = test: Antiviral activity against Influenza A virus H1N1 (A/Puerto Rico/8/34) infected in MDCK cells assessed as reduction in NP protein level at 1 uM in presence of rCTP by Western blot analysis; format: functional, organism-based
[30] = Metabolic stability in dog liver microsomes assessed as intrinsic clearance preincubated for 5 mins followed by NADPH addition and measured upto 45 mins by LC-MS analysis; format: ADME, Canis lupus familiaris, Microsome; conditions: time < 50 min, read-out: CLH
[31] = Metabolic stability in human liver microsomes assessed as half life preincubated for 5 mins followed by NADPH addition and measured upto 45 mins by LC-MS analysis; format: ADME, Microsome; conditions: time < 50 min
Influenza A virus [32] = test: Antiviral activity against Influenza A virus H1N1 (A/Puerto Rico/8/34) infected in BALB/c mouse at 100 mg/kg/day, po administered twice daily for 7 days and measured after 14 days; format: functional; conditions: time 14 day
Influenza A virus [33] = test: Antiviral activity against Influenza A virus H1N1 (A/Puerto Rico/8/34) infected in MDCK cells assessed as reduction in nucleocapsid protein mRNA level by qRT-PCR analysis; format: functional, organism-based; conditions: dose 2-31.3 nM
[34] = Metabolic stability in mouse liver microsomes assessed as hepatic clearance preincubated for 5 mins followed by NADPH addition and measured upto 45 mins by LC-MS analysis; format: ADME, Microsome; conditions: time < 50 min
Influenza B virus [35] = test: Antiviral activity against influenza B virus B/Yamagata/16/88 infected in MDCK cells; format: functional, organism-based; conditions: B/Yamagata/16/88, MDCK
[36] = AUC(0 to t) in Sprague-Dawley rat at 3 mg/kg, iv measured up to 24 hrs by LC-MS analysis; format: ADME, organism-based; conditions: in vivo
[37] = Toxicity in BALB/c mouse assessed as clonic convulsion at 1 g/kg, IG administered 3 times per day and measured for 14 days; conditions: in vivo, po, 1000 mg/kg, 336 h, time 14 day
[38] = Metabolic stability in mouse liver microsomes assessed as hepatic extraction ratio preincubated for 5 mins followed by NADPH addition and measured upto 45 mins by LC-MS analysis; format: ADME, Microsome; conditions: time < 50 min
[39] = Metabolic stability in mouse liver microsomes assessed as intrinsic clearance preincubated for 5 mins followed by NADPH addition and measured upto 45 mins by LC-MS analysis; format: ADME, Microsome; conditions: time < 50 min, read-out: CLH
[40] = Metabolic stability in human liver microsomes assessed as intrinsic clearance preincubated for 5 mins followed by NADPH addition and measured upto 45 mins by LC-MS analysis; format: ADME, Microsome; conditions: time < 50 min, read-out: CLH
[41] = Selectivity index, ratio of CC50 for MDCK cells to EC50 for antiviral activity against Influenza A virus H1N1 (A/Puerto Rico/8/34) infected in MDCK cells; format: toxicity, cell-based; conditions: dog, read-out: Ratio CC50/EC50
[42] = Metabolic stability in human liver microsomes assessed as hepatic clearance preincubated for 5 mins followed by NADPH addition and measured upto 45 mins by LC-MS analysis; format: ADME, Microsome; conditions: time < 50 min
[43] = Half life in Sprague-Dawley rat at 3 mg/kg, iv measured up to 24 hrs by LC-MS analysis; format: ADME, organism-based; conditions: in vivo
Influenza A virus [44] = test: Antiviral activity against Influenza A virus H1N1 (A/Puerto Rico/8/34) infected in MDCK cells assessed as reduction in NP protein level at 1 uM in presence of 125 uM rNTP by Western blot analysis; format: functional, organism-based
[45] = Toxicity in BALB/c mouse assessed as body weight loss at 1 g/kg, IG administered 3 times per day; conditions: in vivo, po, 1000 mg/kg
Influenza A virus [46] = test: Antiviral activity against Influenza A virus H1N1 (A/Puerto Rico/8/34) infected in MDCK cells assessed as reduction in NP protein level at 1 uM treated at 4 hrs post infection by Western blot analysis; format: functional, organism-based
[47] = Toxicity in BALB/c mouse assessed as lethargy at 1 g/kg, IG administered 3 times per day and measured for 14 days; conditions: in vivo, po, 1000 mg/kg, 336 h, time 14 day
Influenza A virus [48] = test: Antiviral activity against Influenza A virus H1N1 (A/Puerto Rico/8/34) infected in MDCK cells assessed as reduction in NP protein level at 1 uM in presence of rNTP by Western blot analysis; format: functional, organism-based
[49] = Oral bioavailability in Sprague-Dawley rat at 10 mg/kg measured up to 24 hrs by LC-MS analysis; format: ADME, organism-based; conditions: in vivo

## CC(C)(C)c1ccc(C(=O)NC(=S)Nc2ccc(NC(=O)c3ccc(C(C)(C)C)cc3)cc2)cc1
Influenza A virus [1]
  Activity: Active
[2]
  CC50: > 100000 nM
[3]
  half-life: 3.26 h
[4]
  AUC(0-t) at 24 h: 5420 ng·h/mL
[5]
  hepatic extraction ratio at 0.75 h: 64.1%
Influenza A virus [6]
  Activity: Dose-Dependent Effect
[7]
  half-life: 1.04 h
[8]
  half-life: 3.2 h
[9]
  CLhep predicted: 19.8 mL/min/kg
[10]
  Activity: Non-Toxic
[11]
  Activity: Non-Toxic
[12]
  Tmax: 4.8 min
[13]
  AUC(0-inf): 5400 ng·h/mL
[14]
  remaining at 2 h: 64%
[15]
  Cmax: 41900 ng/mL
[16]
  half-life: 0.891 h
Influenza A virus [17]
  Activity: Active
[18]
  AUC(0-inf): 21900 ng·h/mL
[19]
  clearance: 2.29 mL/min/kg
Influenza A virus [20]
  EC50: 1 nM
Influenza B virus [21]
  EC50: 40 nM
Influenza A virus [22]
  inhibition: Dose-Dependent Effect
[23]
  Activity: Non-Toxic
Influenza A virus [24]
  Activity: inactive
[25]
  Activity: Non-Toxic
[26]
  hepatic extraction ratio at 0.75 h: 52.3%
[27]
  Cmax: 1180 ng/mL
[28]
  Tmax: 4 h
Influenza A virus [29]
  Activity: inactive
[30]
  CLint scaled: 55.1 mL/min/kg
[31]
  half-life: 1.28 h
Influenza A virus [32]
  Activity: 50%
Influenza A virus [33]
  Activity: Dose-Dependent Effect
[34]
  CLhep predicted: 47.8 mL/min/kg
Influenza B virus [35]
  EC50: 50 nM
[36]
  AUC(0-t) at 24 h: 21900 ng·h/mL
[37]
  Activity: Non-Toxic
[38]
  hepatic extraction ratio at 0.75 h: 53.1%
[39]
  CLint scaled: 102 mL/min/kg
[40]
  CLint scaled: 22.7 mL/min/kg
[41]
  selectivity ratio: > 120000
[42]
  CLhep predicted: 10.8 mL/min/kg
[43]
  half-life: 3.69 h
Influenza A virus [44]
  Activity: inactive
[45]
  Activity: Toxic
Influenza A virus [46]
  Activity: Active
[47]
  Activity: Non-Toxic
Influenza A virus [48]
  Activity: inactive
[49]
  bioavailability: 7.38%
